In PubChem BioAssay AID1259407 (Chemical Carcinogenesis Research Information System (CCRIS), 2018):
The source made the active and inactive calls. How the calls were made is not given here.

Tested on: CCRIS mutagenicity, Ames/micronucleus/aberration tests
Assay: CCRIS mutagenicity studies
[1] = Test System: AMES SALMONELLA TYPHIMURIUM, Strain/Indicator: TA98, Metabolic Activation: RAT, LIVER, S-9, AROCLOR 1254, Method: STANDARD PLATE
[2] = Test System: AMES SALMONELLA TYPHIMURIUM, Strain/Indicator: TA98, Metabolic Activation: RAT, LIVER, S-9, PHENOBARBITAL, Method: STANDARD PLATE
[3] = Test System: AMES SALMONELLA TYPHIMURIUM, Strain/Indicator: TA100, Metabolic Activation: NONE, Method: PREINCUBATION
[4] = Test System: AMES SALMONELLA TYPHIMURIUM, Strain/Indicator: TA100, Metabolic Activation: RAT, LIVER, S-9, AROCLOR 1254, Method: STANDARD PLATE
[5] = Test System: AMES SALMONELLA TYPHIMURIUM, Strain/Indicator: TA100, Metabolic Activation: RAT, LIVER, S-9, PHENOBARBITAL, Method: PREINCUBATION
[6] = Test System: AMES SALMONELLA TYPHIMURIUM, Strain/Indicator: TA100, Metabolic Activation: RAT, LIVER, S-9, PHENOBARBITAL, Method: STANDARD PLATE
[7] = Test System: AMES SALMONELLA TYPHIMURIUM, Strain/Indicator: TA98, Metabolic Activation: NONE, Method: PREINCUBATION

Measured: mutagenic call

COc1cc2c(c3oc4cccc(O)c4c(=O)c13)[C@@H]1C=CO[C@@H]1O2
inactive: Test System: AMES SALMONELLA TYPHIMURIUM, Strain/Indicator: TA98, Metabolic Activation: R,L,S-9, PHENOBARBITAL, Method: STANDARD PLATE inactive; negative | [2] inactive; negative
active: End Point: IN VITRO MICRONUCLEUS, Test System: AHH-1 CELLS, Metabolic Activation: NONE active; positive | End Point: IN VITRO MICRONUCLEUS, Test System: MCL-5 CELLS, Metabolic Activation: NONE active; positive | Test System: AMES SALMONELLA TYPHIMURIUM, Strain/Indicator: TA98, Metabolic Activation: RAT, LIVER, MICROSOMES, PHENOBARBITAL, Method: STANDARD PLATE active; positive | [1] active; positive | Test System: AMES SALMONELLA TYPHIMURIUM, Strain/Indicator: TA98, Metabolic Activation: RAT, LIVER, S-9, KC500 OR PHENOBARBITAL, Method: LIQUID SUSPENSION active; positive | [3] active; positive | Test System: AMES SALMONELLA TYPHIMURIUM, Strain/Indicator: TA100, Metabolic Activation: R,L,S-9, PHENOBARBITAL, Method: STANDARD PLATE active; positive | Test System: AMES SALMONELLA TYPHIMURIUM, Strain/Indicator: TA100, Metabolic Activation: RAT, LIVER, MICROSOMES, PHENOBARBITAL, Method: STANDARD PLATE active; positive | [4] active; positive | Test System: AMES SALMONELLA TYPHIMURIUM, Strain/Indicator: TA100, Metabolic Activation: RAT, LIVER, S-9, KC500 OR PHENOBARBITAL, Method: LIQUID SUSPENSION active; positive | [5] active; positive | [6] active; positive | Test System: AMES SALMONELLA TYPHIMURIUM, Strain/Indicator: TA1538, Metabolic Activation: RAT, LIVER, S-9, AROCLOR 1254, Method: STANDARD PLATE active; positive | Test System: UDS HUMAN CELLS, Strain/Indicator: THY INCORP (NON-S-PHASE), Metabolic Activation: RAT, LIVER, S-9, PHENOBARBITAL, Method: LIQUID SCINTILLATION COUNTING active; positive | Test System: UDS HUMAN FIBROBLASTS, Strain/Indicator: THY INCORP (NON-S-PHASE), Metabolic Activation: MOUSE, LIVER, S-9, Method: AUTORADIOGRAPHY active; positive

O=S(=O)(O)c1ccc2cc(O)ccc2c1
inactive: [7] inactive; negative | Test System: AMES SALMONELLA TYPHIMURIUM, Strain/Indicator: TA98, Metabolic Activation: RAT, LIVER, S-9, PHENOBARBITAL, Method: PREINCUBATION inactive; negative | [3] inactive; negative | [5] inactive; negative

CC(=O)Nc1cccc2ncccc12
inactive: [7] inactive; negative | Test System: AMES SALMONELLA TYPHIMURIUM, Strain/Indicator: TA98, Metabolic Activation: RAT, LIVER, S-9, KANECHLOR 500, Method: PREINCUBATION inactive; negative | [3] inactive; negative | Test System: AMES SALMONELLA TYPHIMURIUM, Strain/Indicator: TA100, Metabolic Activation: RAT, LIVER, S-9, KANECHLOR 500, Method: PREINCUBATION inactive; negative

CCNC(=O)NC(=O)/C(C#N)=N/OC
active: End Point: In vitro chromosomal aberrations, Test System: Human lymphocytes, Metabolic Activation: None active; positive (structural changes) | End Point: In vitro chromosomal aberrations, Test System: Human lymphocytes, Metabolic Activation: S-9 (DPR evaluator did not provide additional details) active; positive (structural changes) | Test System: UDS Rat hepatocytes, Strain/Indicator: Thymidine incorporation, Metabolic Activation: None, Method: Autoradiography active; positive, statistically significant but no linear dose response.
inactive: End Point: In vivo micronucleus, Test System: Bone marrow polychromatic erythrocytes, Species: Mouse, Strain/Sex: Female, Route: Oral (gavage) inactive; negative, significant toxicity (m and f) and early deaths (f only) as high dose | End Point: In vivo micronucleus, Test System: Bone marrow polychromatic erythrocytes, Species: Mouse, Strain/Sex: Male, Route: Oral (gavage) inactive; negative, significant toxicity (m and f) and early deaths (f only) as high dose | Test System: Ames Salmonella typhimurium, Strain/Indicator: TA97, Metabolic Activation: None, Method: Plate incorporation inactive; negative, testing into the cytotoxic range. | Test System: Ames Salmonella typhimurium, Strain/Indicator: TA97, Metabolic Activation: S-9 (DPR evaluator did not provide additional information), Method: Plate incorporation inactive; negative, testing into the cytotoxic range. | Test System: Ames Salmonella typhimurium, Strain/Indicator: TA98, Metabolic Activation: None, Method: Plate incorporation inactive; negative, testing into the cytotoxic range. | Test System: Ames Salmonella typhimurium, Strain/Indicator: TA98, Metabolic Activation: S-9 (DPR evaluator did not provide additional information), Method: Plate incorporation inactive; negative, testing into the cytotoxic range. | Test System: Ames Salmonella typhimurium, Strain/Indicator: TA100, Metabolic Activation: None, Method: Plate incorporation inactive; negative, testing into the cytotoxic range. | Test System: Ames Salmonella typhimurium, Strain/Indicator: TA100, Metabolic Activation: S-9 (DPR evaluator did not provide additional information), Method: Plate incorporation inactive; negative, testing into the cytotoxic range. | Test System: Ames Salmonella typhimurium, Strain/Indicator: TA1535, Metabolic Activation: None, Method: Plate incorporation inactive; negative, testing into the cytotoxic range. | Test System: Ames Salmonella typhimurium, Strain/Indicator: TA1535, Metabolic Activation: S-9 (DPR evaluator did not provide additional information), Method: Plate incorporation inactive; negative, testing into the cytotoxic range. | Test System: Chinese hamster ovary cells, Strain/Indicator: CHO Cells (HPRT) /6-Thioguanine, Metabolic Activation: None, Method: Preincubation inactive; negative | Test System: Chinese hamster ovary cells, Strain/Indicator: CHO Cells (HPRT)/6-Thioguanine, Metabolic Activation: S-9 (DPR evaluator did not provide additional information), Method: Preincubation inactive; negative | Test System: Male rat spermatocytes, Strain/Indicator: Thymidine incorporation, Metabolic Activation: None, Method: Autoradiography inactive; negative, mortality and clinical signs of toxicity observed. | Test System: UDS Male rat hepatocytes, Strain/Indicator: Thymidine incorporation, Metabolic Activation: None, Method: Autoradiography inactive; negative, mortality and clinical signs of toxicity observed.

CCOc1ccccc1OCC1CNCCO1 (stereo unspecified)
inactive: Test System: AMES SALMONELLA TYPHIMURIUM, Strain/Indicator: TA98, Metabolic Activation: NONE, Method: STANDARD PLATE inactive; negative | [1] inactive; negative | Test System: AMES SALMONELLA TYPHIMURIUM, Strain/Indicator: TA100, Metabolic Activation: NONE, Method: STANDARD PLATE inactive; negative | [4] inactive; negative | Test System: AMES SALMONELLA TYPHIMURIUM, Strain/Indicator: TA1535, Metabolic Activation: NONE, Method: STANDARD PLATE inactive; negative | Test System: AMES SALMONELLA TYPHIMURIUM, Strain/Indicator: TA1535, Metabolic Activation: RAT, LIVER, S-9, AROCLOR 1254, Method: STANDARD PLATE inactive; negative | Test System: AMES SALMONELLA TYPHIMURIUM, Strain/Indicator: TA1537, Metabolic Activation: NONE, Method: STANDARD PLATE inactive; negative | Test System: AMES SALMONELLA TYPHIMURIUM, Strain/Indicator: TA1537, Metabolic Activation: RAT, LIVER, S-9, AROCLOR 1254, Method: STANDARD PLATE inactive; negative

C[n+]1cccc(-c2ccc[n+](C)c2)c1
active: [6] active; positive
inactive: Test System: AMES SALMONELLA TYPHIMURIUM, Strain/Indicator: TA97, Metabolic Activation: RAT, LIVER, S-9, PHENOBARBITAL, Method: STANDARD PLATE inactive; negative | [2] inactive; negative | Test System: AMES SALMONELLA TYPHIMURIUM, Strain/Indicator: TA1535, Metabolic Activation: RAT, LIVER, S-9, PHENOBARBITAL, Method: STANDARD PLATE inactive; negative | Test System: AMES SALMONELLA TYPHIMURIUM, Strain/Indicator: TA1537, Metabolic Activation: RAT, LIVER, S-9, PHENOBARBITAL, Method: STANDARD PLATE inactive; negative | Test System: AMES SALMONELLA TYPHIMURIUM, Strain/Indicator: TA1538, Metabolic Activation: RAT, LIVER, S-9, PHENOBARBITAL, Method: STANDARD PLATE inactive; negative
